Laboratory results reported in paper doi:10.1101/2022.05.03.490502v1 (biorxiv, 2022).
pIC50: −log10 of the molar value.

How the values were obtained:
[1] = target: T1, LAT1 (hLAT1; LAT1/4F2hc) (Homo sapiens, UniProt Q01650); assay: cell-based; set-up: species or system TREx HEK-hLAT1
[2] = target: T1, LAT1 (hLAT1; LAT1/4F2hc); assay: cis-inhibition of [3H]-gabapentin uptake, TREx HEK-hLAT1 cells; type: cell-based

T1 sequence (Q01650 whole entry): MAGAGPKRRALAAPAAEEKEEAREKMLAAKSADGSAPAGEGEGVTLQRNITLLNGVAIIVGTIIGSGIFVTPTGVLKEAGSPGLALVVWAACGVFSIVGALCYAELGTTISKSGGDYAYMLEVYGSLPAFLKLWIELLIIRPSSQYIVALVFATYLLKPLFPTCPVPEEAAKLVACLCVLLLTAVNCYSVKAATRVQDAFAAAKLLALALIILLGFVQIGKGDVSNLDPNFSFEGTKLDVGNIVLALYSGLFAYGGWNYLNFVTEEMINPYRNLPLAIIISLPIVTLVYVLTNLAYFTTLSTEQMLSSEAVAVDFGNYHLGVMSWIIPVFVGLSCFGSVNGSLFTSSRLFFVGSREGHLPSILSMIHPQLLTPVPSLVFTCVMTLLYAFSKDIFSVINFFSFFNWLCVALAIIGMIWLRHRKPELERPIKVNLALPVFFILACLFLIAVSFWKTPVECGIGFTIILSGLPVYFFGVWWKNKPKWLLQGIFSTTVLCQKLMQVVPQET
T1 sequence (P08195 103-630 partner): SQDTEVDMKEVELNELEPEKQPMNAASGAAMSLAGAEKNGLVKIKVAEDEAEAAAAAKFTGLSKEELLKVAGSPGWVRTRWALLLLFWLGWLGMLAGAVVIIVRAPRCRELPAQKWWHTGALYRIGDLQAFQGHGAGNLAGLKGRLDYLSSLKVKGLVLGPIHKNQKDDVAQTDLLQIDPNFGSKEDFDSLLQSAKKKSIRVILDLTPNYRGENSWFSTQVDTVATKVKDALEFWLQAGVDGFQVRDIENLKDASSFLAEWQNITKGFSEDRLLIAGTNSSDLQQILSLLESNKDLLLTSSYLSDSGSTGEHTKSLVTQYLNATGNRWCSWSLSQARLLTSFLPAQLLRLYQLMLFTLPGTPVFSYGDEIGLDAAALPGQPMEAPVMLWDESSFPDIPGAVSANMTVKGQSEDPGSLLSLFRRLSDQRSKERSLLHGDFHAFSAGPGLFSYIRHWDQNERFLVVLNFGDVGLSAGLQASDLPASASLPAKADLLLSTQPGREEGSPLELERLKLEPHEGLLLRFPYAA

pIC50 [1] | pIC50 [2] | SMILES
4.80 | – | N[C@@H](Cc1ccc(/N=N/c2ccccc2)cc1)C(=O)O [EN14]
4.04 | – | N[C@@H](Cc1ccccc1)C(=O)O [L-Phe]
– | 4.20 | NC(Cc1ccc(O)c(OCc2ccccc2)c1)C(=O)O (centres unmarked) [EN2]

More lines, now with the values behind:

SMILES | pIC50 [1] | pIC50 [2]
N[C@@H](CNC(=O)OCC1c2ccccc2-c2ccccc21)C(=O)O [KH1] | – | 4.35
N[C@@H](Cc1c[nH]c2ccc(OCc3ccccc3)cc12)C(=O)O [KH13] | – | 4.93
